The values below come from PMC4906375, “Contribution of Amphipathicity and Hydrophobicity to the Antimicrobial Activity and Cytotoxicity of β-Hairpin Peptides” (ACS Infectious Diseases, 2016).

One data set has as its system B. subtilis ATCC 6051. As to the kind of experiment: microbe, parasite or virus in culture. It counts as cell-based, Bacillus subtilis. The settings on record: ATCC 6051. As to the method:
(§1) Both antibacterial and antifungal MIC assays were performed by a broth microdilution plate based method as per CLSI guidelines for antimicrobial susceptibility testing.[53],[54] […] Full assay details are included in the Supporting Information with a full list of strains tested in Table S1.
(§2) Antibacterial assay (Minimum Inhibitory Concentration [MIC]).
(§3) MIC assay was performed by a broth microdilution plate based method as per CLSI guidelines for antimicrobial susceptibility testing of aerobic bacteria.1 Compounds were prepared at 1.28 mg/mL solution in water. The tested strains, Table S1, were cultured in Luria broth (LB) (In Vitro Technologies, USB75852), at 37 °C overnight. A sample of culture was then diluted 40Pfold in fresh Muller Hinton broth (MHB) (Bacto laboratories, 211443) and incubated at 37 °C for 1.5P2 h. The compounds were serially diluted twoPfold across the wells, with compound concentrations ranging from 0.015 µg/mL to 512 µg/mL, plated in duplicate. The resultant midPlog phase cultures were diluted to the final concentration of 1×10^6 CFU/mL, then 50 µL was added to each well of the compoundP containing 96Pwell plates (Corning 3641, NonPbinding Surface [NBS]), giving a final compound concentration range of 0.008 µg/mL to 256 µg/mL and 5x10^5 CFU/mL. All the plates were covered and incubated at 37 °C for 18 h. MICs were determined visually, being defined as the lowest concentration showing no visible growth. Resazurin was added at 0.001% final concentration to each well and incubated for 2 h before MICs were rePread for confirmation using the colour change from blue to pink to indicate wells containing viable cells. The resazurin assay was added in some wells where some form of precipitate was present in otherwise clear wells, making it difficult to ascertain which wells had visible […]
(§4) Antifungal assay (Minimum Inhibitory Concentration [MIC]). MIC assay was performed by a broth microdilution plate based method as per CLSI guidelines for antimicrobial susceptibility testing.2 Fungi strains, Table S1, were cultured for 3 days on Yeast ExtractPPeptone Dextrose (YPD) (SigmaPAldrich, Y1500) agar at 30 °C. A yeast suspension of 1x10^6 to 5x10^6 CFU/mL was prepared from five colonies. These stock suspensions were diluted with Yeast Nitrogen Base (YNB) (Becton Dickinson, 233520) broth to a final concentration of 2.5 ×10^3 CFU/mL. All samples, compounds and standards were plated in 96Pwell plates (Corning 3641, NonPbinding Surface [NBS]), by adding 10 µL of 1.28 mg/mL stock solution to each well and 90 µL of media. Then, the samples were serial diluted (1:2) in 12 concentrations across the plate. The standard antifungal ranged from 256

For data set [1], the system named is S. aureus ATCC 43300 (MRSA). The data set can be described thus: microbe, parasite or virus in culture. It counts as cell-based, Staphylococcus aureus. The settings on record: S. aureus ATCC 43300 (MRSA); n = 4. The method, then: as §1, §2, §3, §4
The next data set deals with C. albicans ATCC 90028. The data set can be described thus: microbe, parasite or virus in culture. It counts as cell-based, Candida albicans. The method, then: as §1, §2, §3
as §4, with “256 […]” for “256”
µg/mL to 0.12 µg/mL and compounds from 128 µg/mL to 0.06 µg/mL with final volumes of 50 µL per well, plated in duplicate. Then, 50 µL of the fungi suspension that was previously prepared in YNB broth to the final concentration of 2.5×10^3 CFU/mL, was added to each well of the compoundPcontaining plates, giving a final standard compound concentration range of 128 µg/mL to 0.06 µg/mL and tested compound from 64 µg/mL to 0.03 µg/mL. Plates were covered and incubated at 35 °C for 24 h. Candida albicans MICs were determined by measuring the absorbance at OD530. For Cryptococcus neoformans 10 µL of 0.06 % resazurin were added to the 24 h incubated plates. Then, these plates were incubated for another 3 h.
Cryptococcus neoformans MICs were determined by measuring the absorbance at OD570P600. […]

The subject of the next data set is A. baumannii ATCC 19606. It counts as cell-based, Acinetobacter baumannii. To be noted: ATCC 19606. As to the method: as §1, §2, §3, §4
Data set [2] concerns human erythrocytes. As to the kind of experiment: Hemolysis assay. To be noted: 3 h, relative to 100% hemolysis by 1% Triton X-100.
Data set [3] relates to human erythrocytes. To be noted: red cells of human, 3 h.

Converted amounts (≈) assume the structure as drawn. Where two headings read alike, the source gives them in different places. Residues, ends and D or L forms follow the SMILES beside them.

For the compound `CC(C)[C@@H]1NC(=O)[C@H](CCCNC(=N)N)NC(=O)[C@H](Cc2ccccc2)NC(=O)[C@@H](NC(=O)[C@H](Cc2c[nH]c3ccccc23)NC(=O)[C@H](CCCNC(=N)N)NC(=O)[C@@H](N)CCCNC(=N)N)CSSC[C@@H](C(=O)N[C@@H](CCCNC(=N)N)C(N)=O)NC(=O)[C@H](CCCCN)NC(=O)[C@H](CCCNC(=N)N)NC(=O)[C@H](Cc2ccc(O)cc2)NC(=O)[C@@H]2CSSC[C@H](NC1=O)C(=O)N[C@@H](Cc1ccc(O)cc1)C(=O)N[C@@H](CCCNC(=N)N)C(=O)NCC(=O)N[C@@H](Cc1ccccc1)C(=O)N2` [polyphemusin-1] (HELM PEPTIDE1{R.R.W.C.F.R.V.C.Y.R.G.F.C.Y.R.K.C.R.[am]}$PEPTIDE1,PEPTIDE1,4:R3-17:R3|PEPTIDE1,PEPTIDE1,8:R3-13:R3$$$V2.0), the MIC against B. subtilis ATCC 6051 came out at 0.25 µg/mL (≈ 0.102 µM); in data set [1], 2 µg/mL (≈ 0.815 µM); in the data set with C. albicans ATCC 90028 (ATCC 90028) it was 1 µg/mL (≈ 0.407 µM); against A. baumannii ATCC 19606, 0.06 µg/mL (≈ 0.0244 µM).

Turning to `CC[C@H](C)[C@H](NC(=O)[C@@H](NC(=O)[C@@H]1CCCN1C(=O)[C@@H](NC(=O)[C@@H]1CCCN1C(=O)[C@H](CCCCN)NC(=O)[C@H](CCCCN)NC(=O)[C@H](CO)NC(=O)CN)C(C)C)[C@@H](C)CC)C(=O)N[C@@H](Cc1ccc(O)cc1)C(=O)N[C@H]1CSSC[C@@H](C(=O)N[C@@H](CCC(N)=O)C(=O)N[C@@H](CCCNC(=N)N)C(=O)N[C@@H](CCSC)C(N)=O)NC(=O)[C@H](CCCCN)NC(=O)CNC(=O)[C@H]([C@@H](C)O)NC(=O)[C@H](CCCNC(=N)N)NC(=O)[C@H](CCCNC(=N)N)NC(=O)[C@H](CC(N)=O)NC1=O` [thanatin], the MIC in the data set on B. subtilis ATCC 6051 was 128 µg/mL (≈ 52.6 µM); in data set [1] it was 256 µg/mL (≈ 105 µM); with C. albicans ATCC 90028 (C. albicans ATCC 90028, n = 4), 64 µg/mL (≈ 26.3 µM); against A. baumannii ATCC 19606, over 256 µg/mL. The “hemolysis (%) at 300 μg/mL” value in the data set on human erythrocytes [2] was “nonhemolytic”.

Turning to `[H][C@]12CSSC[C@]([H])(NC(=O)[C@]([H])([C@@H](C)CC)NC(=O)CNC(=O)[C@H](CCCNC(=N)N)NC(=O)[C@H](Cc3ccc(O)cc3)NC1=O)C(=O)N[C@@H](Cc1ccc(O)cc1)C(=O)N[C@@H](CCCNC(=N)N)C(=O)N[C@@H](CCCNC(=N)N)C(=O)N[C@H](C(=O)N[C@@H](CCCNC(=N)N)C(N)=O)CSSC[C@H](NC(=O)[C@H](Cc1c[nH]c3ccccc13)NC(=O)[C@@H](N)CCCCN)C(=O)N[C@@H](Cc1ccccc1)C(=O)N[C@@H](CCCNC(=N)N)C(=O)N[C@@H](C(C)C)C(=O)N2` [tachyplesin-1] (HELM PEPTIDE1{K.W.C.F.R.V.C.Y.R.G.I.C.Y.R.R.C.R.[am]}$PEPTIDE1,PEPTIDE1,3:R3-16:R3|PEPTIDE1,PEPTIDE1,7:R3-12:R3$$$V2.0), the MIC in the data set with B. subtilis ATCC 6051 is 0.125 µg/mL (≈ 0.0552 µM); in data set [1] it was 1 µg/mL (≈ 0.442 µM); with C. albicans ATCC 90028 (ATCC 90028) it was 4 µg/mL (≈ 1.77 µM); in the data set with A. baumannii ATCC 19606, 0.125 µg/mL (≈ 0.0552 µM). For the same compound, the “hemolysis (%) at 300 μg/mL” value in the data set on human erythrocytes [3] amounted to 27.8 ± 3.9%.

For `CC(C)[C@@H]1NC(=O)CNC(=O)[C@H](CC(N)=O)NC(=O)[C@H](CCCNC(=N)N)NC(=O)[C@H](Cc2ccc(O)cc2)NC(=O)[C@H](C(C)C)NC(=O)[C@@H]2CSSC[C@H](NC(=O)[C@H](C(C)C)NC(=O)[C@H](CCCNC(=N)N)NC1=O)C(=O)N[C@@H](Cc1ccc(O)cc1)C(=O)N[C@@H](CCCNC(=N)N)C(=O)N[C@@H](CCCNC(=N)N)C(=O)N[C@H](C(=O)N[C@@H](CC(N)=O)C(=O)O)CSSC[C@H](NC(=O)[C@H](Cc1ccccc1)NC(=O)CN)C(=O)N[C@@H](Cc1c[nH]c3ccccc13)C(=O)N[C@@H](Cc1ccc(O)cc1)C(=O)N[C@@H](C(C)C)C(=O)N2` [arenicin-3] (HELM PEPTIDE1{G.F.C.W.Y.V.C.V.Y.R.N.G.V.R.V.C.Y.R.R.C.N}$PEPTIDE1,PEPTIDE1,3:R3-20:R3|PEPTIDE1,PEPTIDE1,7:R3-16:R3$$$V2.0), the MIC with B. subtilis ATCC 6051 was 8 µg/mL (≈ 3.06 µM); in data set [1], 64 µg/mL (≈ 24.5 µM); in the data set on C. albicans ATCC 90028 (ATCC 90028), 64 µg/mL (≈ 24.5 µM); with A. baumannii ATCC 19606, 0.5 µg/mL (≈ 0.191 µM). The “hemolysis (%) at 300 μg/mL” value with human erythrocytes [3] is reported as 4.4 ± 1.1%.
